Details: pig, in vivo, po

Row | Compound | presence of marker in the content of different sections of the gastrointestinal tract
1 | C/C=C/C=C/C(=O)O [sorbic acid] | present in the different intestinal sections only when administered in encapsulated form in the lipid matrix
2 | COc1cc(C=O)ccc1O [vanillin] | present in the different intestinal sections only when administered in encapsulated form in the lipid matrix
